Consider three compounds from ChEMBL document CHEMBL1152560, “Substituted 2-arylbenzothiazoles as kinase inhibitors: hit-to-lead optimization” (Bioorg Med Chem, 2009).

Broadly, the residual activity is the signal under treatment as a percentage of the control signal.

Test [1] concerns the target T1, Serine/threonine-protein kinase Nek3 (Homo sapiens) (UniProt P51956).
T1 sequence (whole entry): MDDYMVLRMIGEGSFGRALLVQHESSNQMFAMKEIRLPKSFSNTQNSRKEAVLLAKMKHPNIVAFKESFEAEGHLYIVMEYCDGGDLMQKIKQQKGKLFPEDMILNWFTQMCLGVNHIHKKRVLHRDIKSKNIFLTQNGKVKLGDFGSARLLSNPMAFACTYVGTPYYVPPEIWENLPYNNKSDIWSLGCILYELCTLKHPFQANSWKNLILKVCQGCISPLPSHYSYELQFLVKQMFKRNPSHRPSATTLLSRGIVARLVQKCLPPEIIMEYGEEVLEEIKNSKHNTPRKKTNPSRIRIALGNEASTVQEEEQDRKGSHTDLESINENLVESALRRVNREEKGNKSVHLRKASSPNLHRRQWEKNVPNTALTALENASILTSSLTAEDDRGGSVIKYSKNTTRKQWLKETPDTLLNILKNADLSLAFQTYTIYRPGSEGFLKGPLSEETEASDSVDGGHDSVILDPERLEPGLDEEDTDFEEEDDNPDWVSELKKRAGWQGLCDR
Briefly: Residual activity of NEK3 at 0.1 uM by microplate scintillation counting.

Test [2] addresses Death-associated protein kinase 3 (Homo sapiens) (UniProt O43293). Briefly: Residual activity of DAPK3 at 10 uM by microplate scintillation counting.
Test [3] has as its target Serine/threonine-protein kinase pim-2 (Homo sapiens) (UniProt Q9P1W9). Briefly: Residual activity of PIM2 at 1 uM by microplate scintillation counting.
Test [4] in a line: Residual activity of S6K at 0.1 uM by microplate scintillation counting.
In test [5] the target is T2, Ephrin type-A receptor 8 (Homo sapiens) (UniProt P29322).
T2 sequence (whole entry): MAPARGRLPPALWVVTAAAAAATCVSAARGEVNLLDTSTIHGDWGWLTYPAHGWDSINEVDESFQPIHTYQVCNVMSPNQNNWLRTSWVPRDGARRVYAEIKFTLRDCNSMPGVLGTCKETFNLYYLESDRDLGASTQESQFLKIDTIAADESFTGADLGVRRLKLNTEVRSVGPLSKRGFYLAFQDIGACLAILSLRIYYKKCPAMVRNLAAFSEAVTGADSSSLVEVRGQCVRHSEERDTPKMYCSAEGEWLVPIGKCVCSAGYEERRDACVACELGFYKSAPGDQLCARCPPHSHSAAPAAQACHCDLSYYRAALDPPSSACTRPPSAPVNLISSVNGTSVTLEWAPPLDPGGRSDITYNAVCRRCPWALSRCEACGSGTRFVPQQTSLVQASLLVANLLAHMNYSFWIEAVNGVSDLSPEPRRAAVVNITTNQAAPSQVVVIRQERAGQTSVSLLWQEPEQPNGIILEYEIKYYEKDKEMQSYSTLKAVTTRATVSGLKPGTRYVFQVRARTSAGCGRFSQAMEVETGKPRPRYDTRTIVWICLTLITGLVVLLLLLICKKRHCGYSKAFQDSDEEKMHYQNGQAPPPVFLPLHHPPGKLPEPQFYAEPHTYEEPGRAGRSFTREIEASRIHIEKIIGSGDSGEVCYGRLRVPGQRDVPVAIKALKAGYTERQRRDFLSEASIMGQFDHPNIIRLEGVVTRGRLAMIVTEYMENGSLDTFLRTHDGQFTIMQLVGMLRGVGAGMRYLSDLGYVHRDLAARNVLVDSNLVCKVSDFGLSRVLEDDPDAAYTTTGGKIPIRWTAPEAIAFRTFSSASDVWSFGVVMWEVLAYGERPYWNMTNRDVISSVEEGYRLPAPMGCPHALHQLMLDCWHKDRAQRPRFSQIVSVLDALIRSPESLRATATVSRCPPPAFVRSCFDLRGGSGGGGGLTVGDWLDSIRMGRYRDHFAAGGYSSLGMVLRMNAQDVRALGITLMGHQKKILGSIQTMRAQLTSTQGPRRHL
Briefly: Residual activity of EPHA8 at 0.1 uM by microplate scintillation counting.

For test [6], the target named is Serine/threonine-protein kinase 33 (Homo sapiens) (UniProt Q9BYT3). Briefly: Residual activity of STK33 at 1 uM by microplate scintillation counting.
Sequence of Serine/threonine-protein kinase 33 (Homo sapiens) (Q9BYT3 whole entry, looked up): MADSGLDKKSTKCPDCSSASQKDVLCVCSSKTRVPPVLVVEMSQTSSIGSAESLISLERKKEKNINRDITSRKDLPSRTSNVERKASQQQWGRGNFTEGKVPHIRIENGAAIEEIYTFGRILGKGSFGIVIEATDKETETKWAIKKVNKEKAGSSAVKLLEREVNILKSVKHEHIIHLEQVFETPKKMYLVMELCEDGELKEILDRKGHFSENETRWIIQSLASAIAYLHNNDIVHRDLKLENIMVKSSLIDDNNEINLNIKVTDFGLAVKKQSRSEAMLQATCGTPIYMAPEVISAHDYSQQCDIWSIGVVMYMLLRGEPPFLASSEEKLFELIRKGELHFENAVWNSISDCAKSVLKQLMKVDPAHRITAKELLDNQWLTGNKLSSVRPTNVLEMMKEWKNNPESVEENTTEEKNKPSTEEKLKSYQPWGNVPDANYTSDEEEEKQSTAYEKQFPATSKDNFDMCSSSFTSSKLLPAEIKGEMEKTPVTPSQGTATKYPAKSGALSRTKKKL
For test [7], the target named is Protein kinase C beta type (Homo sapiens) (UniProt P05771). Briefly: Residual activity of PKCbeta2 at 10 uM by microplate scintillation counting.
Sequence of Protein kinase C beta type (Homo sapiens) (P05771 2-671 limits assumed): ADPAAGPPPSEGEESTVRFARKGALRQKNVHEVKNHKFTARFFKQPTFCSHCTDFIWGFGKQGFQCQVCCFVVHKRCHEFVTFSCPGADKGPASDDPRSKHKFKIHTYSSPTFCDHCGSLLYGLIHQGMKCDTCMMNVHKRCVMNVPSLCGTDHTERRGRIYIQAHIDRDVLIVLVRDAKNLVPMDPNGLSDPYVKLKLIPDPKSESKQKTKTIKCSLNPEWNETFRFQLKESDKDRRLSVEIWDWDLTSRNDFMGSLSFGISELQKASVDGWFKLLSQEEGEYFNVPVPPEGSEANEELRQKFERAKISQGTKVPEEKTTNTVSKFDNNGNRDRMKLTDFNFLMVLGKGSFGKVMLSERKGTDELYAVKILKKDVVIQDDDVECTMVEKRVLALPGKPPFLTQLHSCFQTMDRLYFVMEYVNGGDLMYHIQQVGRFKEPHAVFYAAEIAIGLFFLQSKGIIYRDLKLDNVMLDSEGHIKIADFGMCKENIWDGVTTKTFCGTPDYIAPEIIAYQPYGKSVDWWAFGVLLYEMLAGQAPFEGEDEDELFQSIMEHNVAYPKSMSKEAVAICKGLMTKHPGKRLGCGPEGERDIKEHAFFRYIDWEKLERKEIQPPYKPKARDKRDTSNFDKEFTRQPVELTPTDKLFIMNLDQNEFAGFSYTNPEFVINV
Test [8] deals with Calcium/calmodulin-dependent protein kinase kinase 2 (Homo sapiens) (UniProt Q96RR4). Briefly: Residual activity of CAMKK2 at 0.1 uM by microplate scintillation counting.
Sequence of Calcium/calmodulin-dependent protein kinase kinase 2 (Homo sapiens) (Q96RR4 2-588 limits assumed): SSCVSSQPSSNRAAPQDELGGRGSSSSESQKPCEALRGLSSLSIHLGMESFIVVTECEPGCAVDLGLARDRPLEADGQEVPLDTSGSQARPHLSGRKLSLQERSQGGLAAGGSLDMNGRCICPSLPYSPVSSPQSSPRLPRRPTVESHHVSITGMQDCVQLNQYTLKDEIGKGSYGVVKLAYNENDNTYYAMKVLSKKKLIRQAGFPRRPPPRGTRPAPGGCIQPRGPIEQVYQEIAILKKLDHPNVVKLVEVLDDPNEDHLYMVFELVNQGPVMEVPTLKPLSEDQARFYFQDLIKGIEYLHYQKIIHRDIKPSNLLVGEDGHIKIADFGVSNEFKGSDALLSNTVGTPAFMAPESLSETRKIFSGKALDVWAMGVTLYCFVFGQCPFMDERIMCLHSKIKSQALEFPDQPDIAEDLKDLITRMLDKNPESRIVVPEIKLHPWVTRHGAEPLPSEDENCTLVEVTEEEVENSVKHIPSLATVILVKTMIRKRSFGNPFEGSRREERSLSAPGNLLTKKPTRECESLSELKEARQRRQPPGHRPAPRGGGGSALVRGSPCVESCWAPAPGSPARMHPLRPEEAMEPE
The target of test [9] is Ephrin type-A receptor 7 (Homo sapiens) (UniProt Q15375). Briefly: Residual activity of EPHA7 at 10 uM by microplate scintillation counting.
Sequence of Ephrin type-A receptor 7 (Homo sapiens) (Q15375 28-998 limits assumed): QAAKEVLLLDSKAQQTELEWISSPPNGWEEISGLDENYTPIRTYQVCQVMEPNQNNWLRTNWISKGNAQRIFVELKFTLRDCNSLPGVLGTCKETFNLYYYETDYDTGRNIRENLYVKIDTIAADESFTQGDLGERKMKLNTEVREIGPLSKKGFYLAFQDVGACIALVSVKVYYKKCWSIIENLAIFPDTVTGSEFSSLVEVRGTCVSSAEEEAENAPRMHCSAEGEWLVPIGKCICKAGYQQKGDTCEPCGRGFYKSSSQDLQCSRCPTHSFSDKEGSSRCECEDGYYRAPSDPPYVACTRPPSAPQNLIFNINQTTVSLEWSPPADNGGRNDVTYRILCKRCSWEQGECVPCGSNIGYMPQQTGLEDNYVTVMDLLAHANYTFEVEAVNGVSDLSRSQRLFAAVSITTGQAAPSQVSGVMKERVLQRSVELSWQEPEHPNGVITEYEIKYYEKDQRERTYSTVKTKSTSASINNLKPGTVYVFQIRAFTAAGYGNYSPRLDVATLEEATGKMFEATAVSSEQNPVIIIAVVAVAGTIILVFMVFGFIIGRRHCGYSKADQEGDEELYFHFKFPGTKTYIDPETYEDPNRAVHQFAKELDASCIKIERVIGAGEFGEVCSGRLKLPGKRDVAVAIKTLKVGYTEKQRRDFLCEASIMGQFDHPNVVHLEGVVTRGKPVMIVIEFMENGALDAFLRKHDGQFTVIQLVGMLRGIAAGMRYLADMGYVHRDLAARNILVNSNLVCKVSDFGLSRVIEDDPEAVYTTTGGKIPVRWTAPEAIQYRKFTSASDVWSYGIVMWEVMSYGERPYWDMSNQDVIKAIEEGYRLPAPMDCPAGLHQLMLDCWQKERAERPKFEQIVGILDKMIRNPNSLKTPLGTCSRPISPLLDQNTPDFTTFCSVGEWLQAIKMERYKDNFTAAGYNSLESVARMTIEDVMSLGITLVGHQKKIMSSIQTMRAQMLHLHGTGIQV
The subject of test [10] is T3, Receptor-type tyrosine-protein kinase FLT3 (Homo sapiens), P36888 [D835Y].
T3 sequence (whole entry): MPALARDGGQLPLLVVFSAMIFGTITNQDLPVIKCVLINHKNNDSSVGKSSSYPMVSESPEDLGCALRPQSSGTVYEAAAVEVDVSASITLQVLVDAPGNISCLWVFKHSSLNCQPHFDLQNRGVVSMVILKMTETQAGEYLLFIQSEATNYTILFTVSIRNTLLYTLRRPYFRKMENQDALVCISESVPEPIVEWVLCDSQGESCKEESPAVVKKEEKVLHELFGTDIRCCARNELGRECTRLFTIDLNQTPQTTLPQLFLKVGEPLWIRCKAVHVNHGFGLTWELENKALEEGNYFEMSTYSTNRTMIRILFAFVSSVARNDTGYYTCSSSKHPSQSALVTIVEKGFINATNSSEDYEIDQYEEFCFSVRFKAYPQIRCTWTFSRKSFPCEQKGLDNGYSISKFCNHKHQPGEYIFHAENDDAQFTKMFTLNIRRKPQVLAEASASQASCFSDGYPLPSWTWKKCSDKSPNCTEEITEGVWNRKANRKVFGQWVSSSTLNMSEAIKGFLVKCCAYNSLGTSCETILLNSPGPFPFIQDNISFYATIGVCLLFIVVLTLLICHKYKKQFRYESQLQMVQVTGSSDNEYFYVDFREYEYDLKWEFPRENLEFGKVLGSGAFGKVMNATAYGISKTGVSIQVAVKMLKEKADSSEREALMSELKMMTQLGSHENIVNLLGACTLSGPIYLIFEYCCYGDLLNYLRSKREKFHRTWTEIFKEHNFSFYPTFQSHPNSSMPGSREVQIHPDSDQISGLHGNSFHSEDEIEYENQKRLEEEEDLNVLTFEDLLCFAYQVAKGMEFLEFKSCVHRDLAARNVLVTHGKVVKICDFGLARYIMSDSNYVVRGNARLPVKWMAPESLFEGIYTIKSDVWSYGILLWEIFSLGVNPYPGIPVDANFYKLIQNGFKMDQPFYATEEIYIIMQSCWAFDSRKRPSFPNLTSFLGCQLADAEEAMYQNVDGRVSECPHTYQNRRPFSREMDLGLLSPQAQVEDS
The experiment in a line: Residual activity of FLT3 D835Y mutant at 0.1 uM by microplate scintillation counting.

Sequence of Serine/threonine-protein kinase pim-2 (Homo sapiens) (Q9P1W9 whole entry, looked up): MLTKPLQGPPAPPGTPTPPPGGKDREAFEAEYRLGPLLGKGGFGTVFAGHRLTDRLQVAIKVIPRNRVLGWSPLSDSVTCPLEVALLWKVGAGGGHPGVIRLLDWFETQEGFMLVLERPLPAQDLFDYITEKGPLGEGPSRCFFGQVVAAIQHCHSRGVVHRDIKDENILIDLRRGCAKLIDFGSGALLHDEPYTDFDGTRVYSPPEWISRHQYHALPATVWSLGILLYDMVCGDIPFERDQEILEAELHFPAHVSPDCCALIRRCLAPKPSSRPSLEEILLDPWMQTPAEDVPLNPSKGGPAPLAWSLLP
Sequence of Death-associated protein kinase 3 (Homo sapiens) (O43293 whole entry, looked up): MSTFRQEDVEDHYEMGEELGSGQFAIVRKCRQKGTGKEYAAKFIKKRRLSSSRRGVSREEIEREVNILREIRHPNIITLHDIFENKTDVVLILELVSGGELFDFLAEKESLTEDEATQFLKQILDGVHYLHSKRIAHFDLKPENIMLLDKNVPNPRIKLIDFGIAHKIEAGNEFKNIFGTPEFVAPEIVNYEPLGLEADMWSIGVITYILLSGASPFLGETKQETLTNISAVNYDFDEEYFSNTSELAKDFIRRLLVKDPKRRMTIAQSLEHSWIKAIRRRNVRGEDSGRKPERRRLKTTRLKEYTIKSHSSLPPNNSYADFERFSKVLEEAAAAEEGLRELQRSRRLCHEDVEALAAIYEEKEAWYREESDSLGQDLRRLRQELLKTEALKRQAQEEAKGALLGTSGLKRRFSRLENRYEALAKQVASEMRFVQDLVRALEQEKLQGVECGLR

In the case of `COc1cc2c(Oc3ccc(-c4nc5ccccc5s4)cc3F)ncnc2cc1OCCCN1CCN(C)CC1`, the residual activity in test [1] was 93%; in test [2], 89%; in test [3], 77%; in [4] it was 87%; in test [5], 101%; in test [6], 107%. The residual activity in test [7] was 53%; in test [8], 84%; in test [9], 49%; in [10] it was 79%.

`COc1cc2c(Oc3ccc(-c4nc5ccccc5s4)cc3)ncnc2cc1OCCCN1CCN(C)CC1`: the residual activity worked out at 98% in test [1]; 96% in test [2]; 63% in [3]; 85% in test [4]; 109% in test [5]; 72% in test [6]. Besides, the residual activity in [7] turned out to be 77%; in test [8], 86%; in test [9], 116%; in [10] it was 86%.

On to `COc1cc2c(Oc3ccc(-c4nc5ccccc5s4)cc3)ncnc2cc1OCCCN1CCCC1`, for which the residual activity in [1] is 96%; in test [2], 90%; in test [3], 89%; in [4], 90%; in test [5] it was 108%; in test [6], 84%. The residual activity amounted to 69% in test [7], 91% in test [8], 108% in test [9] and 83% in test [10].
